This passage reports Activity and IC50 results from ChEMBL document CHEMBL4304828, “PROTAC-Mediated Degradation of Estrogen Receptor in the Treatment of Cancer” (ACS Med Chem Lett, 2019).

Test [1] concerns the target T1, von Hippel-Lindau disease tumor suppressor/Estrogen receptor (Homo sapiens, UniProt P03372+P40337). In words: Induction of VHL E3 ligase mediated ERalpha degradation in human MCF7 cells at 0.3 uM by cell-based immunofluorescence assay.
Target sequence in this assay (P40337 whole entry, looked up, one chain of several): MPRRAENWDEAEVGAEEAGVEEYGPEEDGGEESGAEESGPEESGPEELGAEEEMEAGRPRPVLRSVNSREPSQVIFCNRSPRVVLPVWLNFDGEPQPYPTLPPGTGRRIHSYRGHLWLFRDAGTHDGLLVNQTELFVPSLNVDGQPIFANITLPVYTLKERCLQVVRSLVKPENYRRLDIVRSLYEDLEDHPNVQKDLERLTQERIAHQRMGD
The target of test [2] is T1, von Hippel-Lindau disease tumor suppressor/Estrogen receptor. The test is described as follows: Induction of VHL E3 ligase mediated ERalpha degradation in human MCF7 cells assessed as downregulation of ERalpha expression by cell-based immunofluorescence assay.
Target sequence in this assay (P40337 whole entry, one chain of several): as the sequence (P40337 whole entry, looked up, one chain of several) above
For test [3], the target named is T2, Estrogen receptor (Homo sapiens, UniProt P03372).
T2 sequence (P03372 whole entry): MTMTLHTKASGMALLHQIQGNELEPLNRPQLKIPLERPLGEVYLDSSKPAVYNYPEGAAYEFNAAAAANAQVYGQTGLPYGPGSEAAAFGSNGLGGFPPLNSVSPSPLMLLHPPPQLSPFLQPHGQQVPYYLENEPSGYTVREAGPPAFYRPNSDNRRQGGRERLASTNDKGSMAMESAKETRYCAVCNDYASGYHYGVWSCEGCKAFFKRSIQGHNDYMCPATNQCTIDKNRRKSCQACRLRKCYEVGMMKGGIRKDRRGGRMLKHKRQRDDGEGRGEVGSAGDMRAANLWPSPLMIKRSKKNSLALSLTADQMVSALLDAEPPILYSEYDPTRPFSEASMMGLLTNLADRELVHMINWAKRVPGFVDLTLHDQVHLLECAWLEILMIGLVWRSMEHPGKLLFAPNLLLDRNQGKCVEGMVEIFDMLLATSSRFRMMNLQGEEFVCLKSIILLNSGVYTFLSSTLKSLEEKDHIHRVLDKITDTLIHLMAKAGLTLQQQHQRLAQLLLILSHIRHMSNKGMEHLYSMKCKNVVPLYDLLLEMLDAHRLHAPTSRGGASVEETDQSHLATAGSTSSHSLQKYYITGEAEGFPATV
In words: Displacement of fluorescent ligand from human recombinant GST-tagged ER-alpha ligand binding domain (307 to 554 residues) incubated for 15 mins by TR-FRET based competitive assay.

Consider `Cc1ncsc1-c1ccc(CNC(=O)[C@@H]2C[C@@H](O)CN2C(=O)[C@@H](NC(=O)COCCOCCC(F)(F)CCOc2cc(F)c([C@@H]3c4[nH]c5ccccc5c4C[C@@H](C)N3CC(C)(C)F)c(F)c2)C(C)(C)C)cc1`, for which, in test [1], the Activity is > 90%. Besides, the IC50 (in general, the concentration that inhibits the measured activity by half) in test [2] turned out to be 0.8 nM.

With `Cc1ncsc1-c1ccc(CNC(=O)[C@@H]2C[C@@H](O)CN2C(=O)[C@@H](NC(=O)COCCCOCCOc2cc(F)c([C@@H]3c4[nH]c5ccccc5c4C[C@@H](C)N3CC(C)(C)F)c(F)c2)C(C)(C)C)cc1`, the Activity in test [1] is > 90%. Moreover, the IC50 in test [2] turned out to be 0.4 nM.

For `Cc1ncsc1-c1ccc([C@H](C)NC(=O)[C@@H]2C[C@@H](O)CN2C(=O)[C@@H](NC(=O)COCCOCCOCCOc2cc(F)c([C@@H]3c4[nH]c5ccccc5c4C[C@@H](C)N3CC(C)(C)F)c(F)c2)C(C)(C)C)cc1`, the Activity in test [1] is > 90%. In addition, the IC50 in test [2] was 0.3 nM.

As for `C[C@]12CC[C@@H]3c4ccc(O)cc4C[C@@H](CCCCCCCCC[S+]([O-])CCCC(F)(F)C(F)(F)F)[C@H]3[C@@H]1CC[C@@H]2O` (some centres not stated), the Activity in test [1] is 100%.

Take `Cc1ncsc1-c1ccc([C@H](C)NC(=O)[C@@H]2C[C@@H](O)CN2C(=O)[C@@H](NC(=O)COCCOCCCCCOc2cc(F)c([C@@H]3c4[nH]c5ccccc5c4C[C@@H](C)N3CC(C)(C)F)c(F)c2)C(C)(C)C)cc1`: the Activity in test [1] was > 90%. Also, the IC50 turned out to be 0.6 nM in test [2] and 0.5 nM in test [3].

With `Cc1ncsc1-c1ccc(CNC(=O)[C@@H]2C[C@@H](O)CN2C(=O)[C@@H](NC(=O)COCCCOCCCOc2cc(F)c([C@@H]3c4[nH]c5ccccc5c4C[C@@H](C)N3CC(C)(C)F)c(F)c2)C(C)(C)C)cc1`, the Activity in test [1] is > 90%. In addition, the IC50 in test [2] was in the range of 0.3 to 0.4 nM.
